Measurements reported in PubChem BioAssay AID256 (DTP/NCI, 2004).
Toxic doses and inconclusive results are not listed. How the source made its calls: active means survival T/C of 150% or more; inactive means T/C below 125% in these data.

Test system: CD2F1 mice, L1210 leukemia ip, survival T/C
Assay: NCI In Vivo Anticancer Drug Screen. Data for tumor model L1210 Leukemia (intraperitoneal) in CD2F1 (CDF1) mice
Settings: higher = longer survival
In short: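 Transplantable tumor in mice; compound-treated vs vehicle-treated groups. Read-out = treated/control ratio of the measured endpoint.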

[1] = endpoint: mean survival time, dose: 100.0 mg/kg/injection, schedule: Q01DX009 (ip), vehicle: saline with Tween-80
[2] = endpoint: mean survival time, dose: 100.0 mg/kg/injection, schedule: Q04DX003 (ip), vehicle: saline with Tween-80
[3] = endpoint: mean survival time, dose: 200.0 mg/kg/injection, schedule: Q01DX009 (ip), vehicle: saline with Tween-80
[4] = endpoint: mean survival time, dose: 200.0 mg/kg/injection, schedule: Q04DX003 (ip), vehicle: saline with Tween-80
[5] = endpoint: mean survival time, dose: 400.0 mg/kg/injection, schedule: Q01DX009 (ip), vehicle: saline with Tween-80
[6] = endpoint: mean survival time, dose: 400.0 mg/kg/injection, schedule: Q04DX003 (ip), vehicle: saline with Tween-80
[7] = endpoint: mean survival time, dose: 100.0 mg/kg/injection, schedule: Q04DX003 (ip), vehicle: acetone
[8] = endpoint: mean survival time, dose: 100.0 mg/kg/injection, schedule: Q01DX001 (ip), vehicle: saline with Tween-80
[9] = endpoint: mean survival time, dose: 200.0 mg/kg/injection, schedule: Q01DX001 (ip), vehicle: saline with Tween-80
[10] = endpoint: mean survival time, dose: 400.0 mg/kg/injection, schedule: Q01DX001 (ip), vehicle: saline with Tween-80
[11] = endpoint: mean survival time, dose: 50.0 mg/kg/injection, schedule: Q01DX009 (ip), vehicle: saline with Tween-80

Measured: T/C

CN(C)c1ccc(/C=N/N=C(/N)N[N+](=O)[O-])cc1
inactive: endpoint: mean survival time, dose: 100.0 mg/kg/injection, schedule: Q01DX001 (ip), vehicle: saline 94 % of control | endpoint: mean survival time, dose: 200.0 mg/kg/injection, schedule: Q01DX001 (ip), vehicle: saline 97 % of control

CCCCOC(=O)CCCC(=O)OCCCC
inactive: [1] 108 % of control | [2] 95 % of control | [3] 104 % of control | [4] 93 % of control | [5] 103 % of control | [6] 95 % of control

CCCc1cc(CCC)n2nc(N)nc2n1
inactive: [2] 96 % of control | [4] 94 % of control | [6] 94 % of control

CC(C)N1CCOCC1
inactive: [7] 100 % of control

CN(C)CCNCCN(C)C
inactive: endpoint: mean survival time, dose: 75.0 mg/kg/injection, schedule: Q01DX001 (ip), vehicle: saline 100 % of control | endpoint: mean survival time, dose: 150.0 mg/kg/injection, schedule: Q01DX001 (ip), vehicle: saline 100 % of control | endpoint: mean survival time, dose: 300.0 mg/kg/injection, schedule: Q01DX001 (ip), vehicle: saline 102 % of control

COc1cc(CCl)ccc1OCc1ccccc1
inactive: endpoint: mean survival time, dose: 100.0 mg/kg/injection, schedule: Q04DX003 (ip), vehicle: other 98 % of control | endpoint: mean survival time, dose: 200.0 mg/kg/injection, schedule: Q04DX003 (ip), vehicle: other 98 % of control | endpoint: mean survival time, dose: 400.0 mg/kg/injection, schedule: Q04DX003 (ip), vehicle: other 109 % of control

CCOC(=O)C(=Cc1ccc(O)c(OC)c1)C(=O)OCC
inactive: [8] 104 % of control | [1] 93 % of control | [9] 101 % of control | [3] 101 % of control | [10] 108 % of control | [5] 101 % of control

COC(=O)CCC(=O)c1ccc(C)cc1
inactive: [7] 94 % of control | endpoint: mean survival time, dose: 200.0 mg/kg/injection, schedule: Q04DX003 (ip), vehicle: acetone 104 % of control | endpoint: mean survival time, dose: 400.0 mg/kg/injection, schedule: Q04DX003 (ip), vehicle: acetone 98 % of control

O=C1OC(=O)[C@H]2[C@@H]1[C@H]1C=C[C@@H]2OC1=O
inactive: endpoint: median survival time, dose: 12.5 mg/kg/injection, schedule: Q01DX009 (ip), vehicle: saline 98 % of control | endpoint: median survival time, dose: 25.0 mg/kg/injection, schedule: Q01DX009 (ip), vehicle: saline 104 % of control | endpoint: median survival time, dose: 50.0 mg/kg/injection, schedule: Q01DX009 (ip), vehicle: saline 104 % of control | endpoint: median survival time, dose: 100.0 mg/kg/injection, schedule: Q01DX009 (ip), vehicle: saline 104 % of control | endpoint: median survival time, dose: 200.0 mg/kg/injection, schedule: Q01DX009 (ip), vehicle: saline 96 % of control

CC(C)(C)OC(=O)NC(Cc1ccc(OCc2ccccc2)cc1)C(=O)O (configuration not stated)
inactive: [2] 95 % of control | [4] 101 % of control

Nc1c(Cl)cccc1Cl (tested in a mixture with another compound)
inactive: [8] 89 % of control | [1] 99 % of control | [9] 91 % of control | [3] 98 % of control | [10] 91 % of control | [5] 107 % of control

Cc1ccc2c(c1)C1(SC(C)C(=O)N1c1ccc(Cl)cc1)C(=O)N2 (configuration not stated)
inactive: endpoint: median survival time, dose: 25.0 mg/kg/injection, schedule: Q01DX005 (ip), vehicle: saline with Tween-80 107 % of control | endpoint: median survival time, dose: 50.0 mg/kg/injection, schedule: Q01DX005 (ip), vehicle: saline with Tween-80 113 % of control | endpoint: median survival time, dose: 100.0 mg/kg/injection, schedule: Q01DX005 (ip), vehicle: saline with Tween-80 116 % of control | endpoint: median survival time, dose: 200.0 mg/kg/injection, schedule: Q01DX005 (ip), vehicle: saline with Tween-80 116 % of control | endpoint: median survival time, dose: 400.0 mg/kg/injection, schedule: Q01DX005 (ip), vehicle: saline with Tween-80 123 % of control

Cc1sc(Cc2ccccc2)nc1-c1ccc(N=Cc2ccc(N(CCOS(C)(=O)=O)CCOS(C)(=O)=O)cc2)cc1
inactive: endpoint: mean survival time, dose: 25.0 mg/kg/injection, schedule: Q01DX009 (ip), vehicle: saline with Tween-80 107 % of control | [11] 93 % of control

COc1ccc(CNCCCCCCNCc2ccc(OC)cc2)cc1
inactive: [11] 100 % of control | [1] 95 % of control | [2] 101 % of control | [4] 87 % of control

NC(CCl)=NCC1C2CC3CC(C2)CC1C3 (configuration not stated)
inactive: endpoint: mean survival time, dose: 6.25 mg/kg/injection, schedule: Q04DX002 (ip), vehicle: saline 96 % of control | endpoint: mean survival time, dose: 12.5 mg/kg/injection, schedule: Q04DX002 (ip), vehicle: saline 93 % of control | endpoint: mean survival time, dose: 25.0 mg/kg/injection, schedule: Q04DX002 (ip), vehicle: saline 90 % of control | endpoint: mean survival time, dose: 50.0 mg/kg/injection, schedule: Q04DX002 (ip), vehicle: saline 96 % of control | endpoint: mean survival time, dose: 100.0 mg/kg/injection, schedule: Q01DX001 (ip), vehicle: Klucel (hydroxypropylcellulose) (HPC) 107 % of control | endpoint: mean survival time, dose: 200.0 mg/kg/injection, schedule: Q01DX001 (ip), vehicle: Klucel (hydroxypropylcellulose) (HPC) 98 % of control

CN(C)CCCN=C(N)CSP(=O)(O)O
inactive: endpoint: mean survival time, dose: 100.0 mg/kg/injection, schedule: Q04DX002 (ip), vehicle: saline 102 % of control | endpoint: mean survival time, dose: 200.0 mg/kg/injection, schedule: Q04DX002 (ip), vehicle: saline 109 % of control

Cc1cccc(N2CCN(CCO)CC2)c1
inactive: endpoint: mean survival time, dose: 12.5 mg/kg/injection, schedule: Q01DX009 (ip), vehicle: saline 109 % of control | endpoint: mean survival time, dose: 25.0 mg/kg/injection, schedule: Q01DX009 (ip), vehicle: saline 102 % of control | endpoint: mean survival time, dose: 50.0 mg/kg/injection, schedule: Q01DX009 (ip), vehicle: saline 100 % of control

CC(C)(C)OCC(N)C(=O)OC(C)(C)C (configuration not stated)
inactive: endpoint: mean survival time, dose: 100.0 mg/kg/injection, schedule: Q04DX003 (ip), vehicle: saline 93 % of control | endpoint: mean survival time, dose: 200.0 mg/kg/injection, schedule: Q04DX003 (ip), vehicle: saline 103 % of control | endpoint: mean survival time, dose: 400.0 mg/kg/injection, schedule: Q04DX003 (ip), vehicle: saline 96 % of control

O=c1[nH]cc(NCCCc2ccccc2)c(=O)[nH]1
inactive: [2] 102 % of control | [4] 104 % of control | [6] 96 % of control

CNC(=O)n1c(N)nc(-c2ccccc2)c1-c1ccccc1
inactive: endpoint: median survival time, dose: 6.25 mg/kg/injection, schedule: Q01DX009 (ip), vehicle: saline with Tween-80 101 % of control | endpoint: median survival time, dose: 12.5 mg/kg/injection, schedule: Q01DX009 (ip), vehicle: saline with Tween-80 103 % of control | endpoint: median survival time, dose: 25.0 mg/kg/injection, schedule: Q01DX009 (ip), vehicle: saline with Tween-80 114 % of control | endpoint: median survival time, dose: 50.0 mg/kg/injection, schedule: Q01DX009 (ip), vehicle: saline with Tween-80 119 % of control | endpoint: median survival time, dose: 100.0 mg/kg/injection, schedule: Q01DX009 (ip), vehicle: saline with Tween-80 98 % of control

CC(=O)N1NC2C(=O)N(C3CCCCC3)CC2C1c1ccc(N(C)C)cc1 (configuration not stated)
inactive: [8] 100 % of control | endpoint: mean survival time, dose: 100.0 mg/kg/injection, schedule: Q04DX002 (ip), vehicle: saline with Tween-80 103 % of control | [9] 100 % of control | endpoint: mean survival time, dose: 200.0 mg/kg/injection, schedule: Q04DX002 (ip), vehicle: saline with Tween-80 100 % of control | [10] 100 % of control | endpoint: mean survival time, dose: 400.0 mg/kg/injection, schedule: Q04DX002 (ip), vehicle: saline with Tween-80 92 % of control

CC(C)(C)C1=CC(=CN(O)C(C)(C)C)C=C(C(C)(C)C)C1=O
inactive: [8] 100 % of control | [9] 103 % of control | [10] 100 % of control
